Data: publication PMC9381564 (Plant and Cell Physiology, 2022)

Molecular target: T1, SoGDH (spinach L-galactose dehydrogenase) (Spinacia oleracea, UniProt Q6BDJ2)
T1 sequence (Q6BDJ2 1-322): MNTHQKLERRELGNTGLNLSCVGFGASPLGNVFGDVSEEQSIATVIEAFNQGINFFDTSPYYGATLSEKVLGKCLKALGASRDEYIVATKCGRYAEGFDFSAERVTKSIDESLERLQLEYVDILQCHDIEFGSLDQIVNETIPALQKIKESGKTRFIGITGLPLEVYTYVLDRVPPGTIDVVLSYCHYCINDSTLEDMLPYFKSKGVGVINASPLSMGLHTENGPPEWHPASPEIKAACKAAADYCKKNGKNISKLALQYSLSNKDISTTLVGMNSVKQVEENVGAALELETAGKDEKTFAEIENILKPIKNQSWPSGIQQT
Experiment: X-ray crystal structure, co-crystallisation, […] A
Format: binding
Settings: 5 mM NAD+, 1 mM L-galactose in drop, Bis-Tris pH 5.5

NC(=O)c1ccc[n+]([C@@H]2O[C@H](COP(=O)(O)OP(=O)(O)OC[C@H]3O[C@@H](n4cnc5c(N)ncnc54)[C@H](O)[C@@H]3O)[C@@H](O)[C@H]2O)c1 [NAD^+]
X-ray crystal structure, co-crystallisation, 1.75 A: crystals of SoGDH complexed with the cofactor NAD^+ were obtained using co-crystallization
